Where two headings read alike, the source gives them in different places.
Legend:
[1] = system: tobacco mosaic virus (TMV); experiment: Anti-TMV in vitro effect (half-leaf soaking); format: cell-based, tobacco mosaic virus (host Nicotiana tabacum L.cv.Xanthi NN); conditions: for inhibition at 100 µg/mL / inhibition at 500 µg/mL: Tobacco mosaic virus, read-out: Relative inhibition rate (%) In vitro activity
[2] = system: tobacco mosaic virus (TMV); experiment: Anti-TMV in vivo inactivation; design: species or system tobacco mosaic virus (host Nicotiana tabacum L.cv.Xanthi NN); conditions: for inhibition at 100 µg/mL / inhibition at 500 µg/mL: Tobacco mosaic virus, read-out: Relative inhibition rate (%) In vivo inactivation
[3] = system: tobacco mosaic virus (TMV); experiment: Anti-TMV in vivo therapeutic effect; design: species or system tobacco mosaic virus (host Nicotiana tabacum L.cv.Xanthi NN); conditions: for inhibition at 100 µg/mL / inhibition at 500 µg/mL: Tobacco mosaic virus, read-out: Relative inhibition rate (%) In vivo therapy
[4] = system: tobacco mosaic virus (TMV); experiment: Anti-TMV in vivo protective effect; design: species or system tobacco mosaic virus (host Nicotiana tabacum L.cv.Xanthi NN); conditions: for inhibition at 100 µg/mL / inhibition at 500 µg/mL: Tobacco mosaic virus, read-out: Relative inhibition rate (%) In vivo protection
[5] = system: cucumber fusarium wilt; experiment: Fungicidal (bactericidal) activity in vitro, PDA colony diameter; format: cell-based; conditions: 50 mg/kg; for inhibition of growth at 50 mg/kg: Fusarium, 96 h
[6] = system: Cercospora arachidicola; experiment: as above; format: cell-based; conditions: 50 mg/kg; for inhibition of growth at 50 mg/kg: Mycosphaerella arachidis, 96 h
[7] = system: Macrophoma kawatsukai; experiment: as above; format: cell-based; conditions: 50 mg/kg
[8] = system: Alternaria solani; experiment: as above; format: cell-based; conditions: 50 mg/kg; for inhibition of growth at 50 mg/kg: Alternaria solani, 96 h
[9] = system: Fusarium graminearumt; experiment: microbe, parasite or virus in culture; format: cell-based; conditions: for Bactericidal activity (%) Fusarium graminearumt: 50 mg/kg; for inhibition of growth at 50 mg/kg: Fusarium, 96 h, read-out: Bactericidal activity (%) Fusarium graminearumt
[10] = system: potato late blight; experiment: microbe, parasite or virus in culture; format: cell-based; conditions: for inhibition of growth at 50 mg/kg: Phytophthora infestans, 96 h, read-out: Bactericidal activity (%) potato late blight
[11] = system: Sclerotinia scleotiorum; experiment: Fungicidal (bactericidal) activity in vitro, PDA colony diameter; format: cell-based; conditions: 50 mg/kg; for inhibition of growth at 50 mg/kg: Sclerotinia, 96 h
[12] = system: Botrytis cinerea; experiment: as above; format: cell-based; conditions: 50 mg/kg; for inhibition of growth at 50 mg/kg: Botrytis cinerea, 96 h
[13] = system: Rhizoctonia solani; experiment: as above; format: cell-based; conditions: 50 mg/kg; for inhibition of growth at 50 mg/kg: Rhizoctonia solani, 96 h
[14] = system: Phytophthora capsici; experiment: as above; format: cell-based; conditions: 50 mg/kg; for inhibition of growth at 50 mg/kg: Phytophthora capsici, 96 h
[15] = system: Fusarium fujikuroi; experiment: as above; format: cell-based; conditions: for inhibition of growth at 50 mg/kg: Fusarium fujikuroi, 96 h
[16] = system: Rhizoctonia cereali; experiment: as above; format: cell-based; conditions: 50 mg/kg; for inhibition of growth at 50 mg/kg: Rhizoctonia, 96 h
[17] = system: Bipolaria maydis; experiment: organism not typed; format: cell-based; conditions: for Bactericidal activity (%) Bipolaria maydis: 50 mg/kg; for inhibition at 50 mg/kg: read-out: Bactericidal activity (%) Bipolaria maydis
[18] = system: Colletotrichum orbiculare; experiment: Fungicidal (bactericidal) activity in vitro, PDA colony diameter; format: cell-based; conditions: 50 mg/kg; for inhibition of growth at 50 mg/kg: Colletotrichum orbiculare, 96 h
[19] = system: armyworms; format: in vivo; conditions: concentration 600 mg/kg
[20] = system: cotton bollworms; experiment: whole plant or invertebrate; conditions: for Cotton bollworm Mortality (%): concentration 600 mg/kg; for mortality at 600 mg/kg: Helicoverpa armigera, in Gossypium hirsutum, read-out: Cotton bollworm Mortality (%)
Protocol: Experimental method of cotton bollworms: feed and drug mixing method: measure 3 mL of prepared solution and add it to about 27 g of newly prepared feed, thereby obtaining needed concentration through dilution by 10 times.

[21] = system: mosquito larvae; experiment: whole plant or invertebrate; conditions: 24 h; for mortality at 10 mg/kg: Culex pipiens, read-out: Mosquito larvae Mortality (%)
Summary of the method: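 Early fourth-instar Culex pipiens pallens larvae from an indoor colony, 10 per beaker, exposed to test compound at 5 ppm in water, diluted from a 1000 ppm acetone mother solution. Blank: water containing 0.5 mL test solvent.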

[22] = system: armyworms, cotton bollworms and corn borers; experiment: Insecticidal activity, overall statements on Table 3; format: in vivo; conditions: Table 3, 600 mg/kg
[23] = system: corn borers; conditions: concentration 600 mg/kg
[24] = system: tobacco mosaic virus (TMV); experiment: Anti-TMV activity, overall statements on Table 1; format: in vivo, tobacco mosaic virus (host Nicotiana tabacum L.cv.Xanthi NN); conditions: 100 μg/mL versus ningnanmycin at 100 μg/mL
[25] = system: corn borers; experiment: whole plant or invertebrate; conditions: read-out: Corn borer Mortality (%)

Structure (SMILES): C[C@@H]1N[C@H](C(=O)NCC2CCCO2)Cc2c1[nH]c1ccccc21 (stereo partly drawn) [Ib-20, (1S, 3S)—N-((tetrahydrofuran-2)-methyl)-1-methyl-2,3,4,9-tetrahydro-pyridino [3,4-b] indol-3-formamide]
- Relative inhibition rate (%) In vitro activity ([1]; treatment dose 100 μg/mL): 0%
- Relative inhibition rate (%) In vitro activity ([1]; treatment dose 500 μg/mL): 37.5%
- Relative inhibition rate (%) In vivo inactivation ([2]; treatment dose 100 μg/mL): 9.8%
- Relative inhibition rate (%) In vivo inactivation ([2]; treatment dose 500 μg/mL): 39.1%
- Relative inhibition rate (%) In vivo therapy ([3]; treatment dose 100 μg/mL): 0%
- Relative inhibition rate (%) In vivo therapy ([3]; treatment dose 500 μg/mL): 34.2%
- Relative inhibition rate (%) In vivo protection ([4]; treatment dose 100 μg/mL): 0%
- Relative inhibition rate (%) In vivo protection ([4]; treatment dose 500 μg/mL): 29.6%
- Bactericidal activity (%) Cucumber fusarium wilt [5]: 15.4%
- Bactericidal activity (%) Cercospora arachidicola [6]: 23.5%
- Bactericidal activity (%) Macrophoma kawatsukai [7]: 27.8%
- Bactericidal activity (%) Alternaria solani [8]: 20.0%
- Bactericidal activity (%) Fusarium graminearumt [9]: 24.1%
- Bactericidal activity (%) potato late blight [10]: 20.0%
- Bactericidal activity (%) Sclerotinia scleotiorum [11]: 0.0%
- Bactericidal activity (%) Botrytis cinerea [12]: 36.4%
- Bactericidal activity (%) Rhizoctonia solani [13]: 13.2%
- Bactericidal activity (%) Phytophthora capsici [14]: 18.4%
- Bactericidal activity (%) Fusarium fujikuroi ([15]; 50 mg/kg): 21.4%
- Bactericidal activity (%) Rhizoctonia cereali [16]: 47.1%
- Bactericidal activity (%) Bipolaria maydis [17]: 16.0%
- Bactericidal activity (%) Colletotrichum orbiculare [18]: 18.5%
- Armyworm Mortality (%) [19]: 65%
- Cotton bollworm Mortality (%) [20]: 30%
- Mosquito larvae Mortality (%) ([21]; concentration 5 mg/kg): 40%
- Mosquito larvae Mortality (%) ([21]; concentration 10 mg/kg): 100%
- activity against armyworms, cotton bollworms and corn borers (in words) [22]: broad-spectrum activity
- Corn borer Mortality (%) [23]: 60%

Structure (SMILES): COc1ccc(C=NNC(=O)[C@@H]2Cc3c([nH]c4ccccc34)[C@H](C)N2)cc1OC [Ic-11, (1S, 3S)—N′-(3,4-dimethoxybenzylidene)-1-methyl-2,3,4,9-tetrahydropyridino [3,4-b] indol-3-formylhydrazine]
- Relative inhibition rate (%) In vitro activity ([1]; treatment dose 100 μg/mL): 7.8%
- Relative inhibition rate (%) In vitro activity ([1]; treatment dose 500 μg/mL): 37.2%
- Relative inhibition rate (%) In vivo inactivation ([2]; treatment dose 100 μg/mL): 20.3%
- Relative inhibition rate (%) In vivo inactivation ([2]; treatment dose 500 μg/mL): 47.1%
- Relative inhibition rate (%) In vivo therapy ([3]; treatment dose 100 μg/mL): 16.2%
- Relative inhibition rate (%) In vivo therapy ([3]; treatment dose 500 μg/mL): 40.5%
- Relative inhibition rate (%) In vivo protection ([4]; treatment dose 100 μg/mL): 11%
- Relative inhibition rate (%) In vivo protection ([4]; treatment dose 500 μg/mL): 42.3%
- Bactericidal activity (%) Cucumber fusarium wilt [5]: 22.7%
- Bactericidal activity (%) Cercospora arachidicola [6]: 45.5%
- Bactericidal activity (%) Macrophoma kawatsukai [7]: 66.7%
- Bactericidal activity (%) Alternaria solani [8]: 52.4%
- Bactericidal activity (%) Fusarium graminearumt [9]: 30.8%
- Bactericidal activity (%) potato late blight [10]: 30.4%
- Bactericidal activity (%) Sclerotinia scleotiorum [11]: 21.2%
- Bactericidal activity (%) Botrytis cinerea [12]: 66.7%
- Bactericidal activity (%) Rhizoctonia solani [13]: 44.4%
- Bactericidal activity (%) Phytophthora capsici [14]: 84.8%
- Bactericidal activity (%) Fusarium fujikuroi [15]: 47.1%
- Bactericidal activity (%) Rhizoctonia cereali [16]: 89.2%
- Bactericidal activity (%) Bipolaria maydis [17]: 52.0%
- Bactericidal activity (%) Colletotrichum orbiculare [18]: 72.0%
- Armyworm Mortality (%) [19]: 65%
- Cotton bollworm Mortality (%) [20]: 40%
- Mosquito larvae Mortality (%) ([21]; concentration 5 mg/kg): 40%
- Mosquito larvae Mortality (%) ([21]; concentration 10 mg/kg): 100%
- activity against armyworms, cotton bollworms and corn borers (in words) [22]: broad-spectrum activity
- Corn borer Mortality (%) [23]: 55%

Structure (SMILES): C[C@@H]1N[C@H](C(=O)NNC(=O)c2cccc3nnsc23)Cc2c1[nH]c1ccccc21 [Id-1, N′-((1S, 3S)-1-methyl-2,3,4,9-tetrahydropyridino [3,4-b]indol-3-tricarboxylate)benzo [d] [1,2, 3] thiadiazole-7-formylhydrazine]
- inhibition at 100 µg/mL ([1]; treatment dose 100 μg/mL): 22.6%
- inhibition at 500 µg/mL ([1]; treatment dose 500 μg/mL): 52.1%
- inhibition at 100 µg/mL ([2]; treatment dose 100 μg/mL): 16.2%
- inhibition at 500 µg/mL ([2]; treatment dose 500 μg/mL): 44.1%
- inhibition at 100 µg/mL ([3]; treatment dose 100 μg/mL): 26.8%
- inhibition at 500 µg/mL ([3]; treatment dose 500 μg/mL): 54.5%
- inhibition at 100 µg/mL ([4]; treatment dose 100 μg/mL): 29.9%
- inhibition at 500 µg/mL ([4]; treatment dose 500 μg/mL): 58.3%
- inhibition of growth at 50 mg/kg [5]: 13.6%
- inhibition of growth at 50 mg/kg [6]: 18.2%
- inhibition at 50 mg/kg [7]: 51.5%
- inhibition of growth at 50 mg/kg [8]: 19%
- inhibition of growth at 50 mg/kg [9]: 61.5%
- inhibition of growth at 50 mg/kg [10]: 17.4%
- inhibition of growth at 50 mg/kg [11]: 26.9%
- inhibition of growth at 50 mg/kg [12]: 44.4%
- inhibition of growth at 50 mg/kg [13]: 1.4%
- inhibition of growth at 50 mg/kg [14]: 27.3%
- inhibition of growth at 50 mg/kg ([15]; 50 mg/kg): 47.1%
- inhibition of growth at 50 mg/kg [16]: 43.2%
- inhibition at 50 mg/kg [17]: 36%
- inhibition of growth at 50 mg/kg [18]: 32%
- Armyworm Mortality (%) [19]: 35%
- mortality at 600 mg/kg [20]: 15%
- mortality at 10 mg/kg [21]: 75%
- anti-TMV activity compared with ningnanmycin [24]: equivalent to the activity of commercial variety ningnanmycin
- mortality at 600 mg/kg [25]: 35%

Structure (SMILES): C[C@@H]1N[C@H](C(=O)NN)Cc2c1[nH]c1ccccc21 [Ib-15, (1S, 3S)-1-methyl-2,3,4,9-tetrahydropyridino [3,4-b] indol-3-formylhydrazine]
- inhibition at 100 µg/mL ([1]; treatment dose 100 μg/mL): 21.4%
- inhibition at 500 µg/mL ([1]; treatment dose 500 μg/mL): 50%
- inhibition at 100 µg/mL ([2]; treatment dose 100 μg/mL): 16.5%
- inhibition at 500 µg/mL ([2]; treatment dose 500 μg/mL): 46%
- inhibition at 100 µg/mL ([3]; treatment dose 100 μg/mL): 20.3%
- inhibition at 500 µg/mL ([3]; treatment dose 500 μg/mL): 48.2%
- inhibition at 100 µg/mL ([4]; treatment dose 100 μg/mL): 23.4%
- inhibition at 500 µg/mL ([4]; treatment dose 500 μg/mL): 49.6%
- inhibition of growth at 50 mg/kg [5]: 13.6%
- inhibition of growth at 50 mg/kg [6]: 18.2%
- inhibition at 50 mg/kg [7]: 39.4%
- inhibition of growth at 50 mg/kg [8]: 9.5%
- inhibition of growth at 50 mg/kg [9]: 38.5%
- inhibition of growth at 50 mg/kg [10]: 26.1%
- inhibition of growth at 50 mg/kg [11]: 30.8%
- inhibition of growth at 50 mg/kg [12]: 27.8%
- inhibition of growth at 50 mg/kg [13]: 4.2%
- inhibition of growth at 50 mg/kg [14]: 51.5%
- inhibition of growth at 50 mg/kg ([15]; 50 mg/kg): 29.4%
- inhibition of growth at 50 mg/kg [16]: 54.1%
- inhibition at 50 mg/kg [17]: 24%
- inhibition of growth at 50 mg/kg [18]: 24%
- Armyworm Mortality (%) [19]: 20%
- mortality at 600 mg/kg [20]: 20%
- mortality at 10 mg/kg [21]: 40%
- anti-TMV activity compared with ningnanmycin [24]: equivalent to the activity of commercial variety ningnanmycin
- mortality at 600 mg/kg [25]: 30%
